# In patent publication US8927254B2 (priority 2010, dated 2015):
# Where two headings read alike, the source gives them in different places.
# Legend:
# [1] = system: P. furiosus trp deletion strains; format: cell-based, Pyrococcus furiosus
# P. furiosus = assay: microbe, parasite or virus in culture; format: cell-based; conditions: Pyrococcus furiosus
SMILES,"sensitivity to 5-FAA ([1]; trpAB deletion strain, tight tryptophan auxotroph)","sensitivity to 5-FAA ([1]; trpE or trpD deletion strains, leaky tryptophan auxotrophs)","sensitivity to 5-FAA ([1]; trpF (PF1707) pop-out deletion strain, leaky auxotroph)",MIC (P. furiosus)
"Nc1ccc(F)cc1C(=O)O [5-FAA, 5-fluoroanthranilic acid]",not sensitive,not sensitive,not sensitive,
"O=C(O)c1[nH]c(=O)[nH]c(=O)c1F [5-FOA, 5-fluoroorotic acid]",,,,8 mM
CCC(C)(C)C(=O)O[C@H]1C[C@@H](C)C=C2C=C[C@H](C)[C@H](CC[C@@H]3C[C@@H](O)CC(=O)O3)[C@H]21 [simvastatin],,,,0.01 to 0.024 mM
